Measured values reported in US10512700B2, “Radiohalide-labeled targeted diagnostics and therapeutics” (Memorial Sloan Kettering Cancer Center, priority 2014, dated 2019).
Several values for one entry are separate records, joined by “and”; a condition that tells them apart may be missing. Equal values may be shown once.

System: U87 MG tumor bearing mice
Assay: Biodistribution
Assay type: in vivo, mouse
Conditions: i.v.
Procedure: Biodistribution experiments were conducted on female nude mice (8-10 weeks old and 20-25 g in weight, n=21) bearing U87 MG subcutaneous xenografts. The radiolabeled preparation (20-30 μCi of compound C-2d (^131I) in 200 μL of a solution 90% PBS 10% PEG300) was administrated via the lateral tail vein. To determine a suitable specific activity (to achieve a sufficiently high tumor to organ ratio), several specific activities were tested (5 mCi/μmol, 50 mCi/μmol, 250 mCi/μmol) in mice bearing U87 MG tumors. The compound was allowed to circulate for 2 h post injection at which time mice were sacrificed and organs were harvested (n=3). The radioactive content in tissue of interest (blood, tumor, muscle, bone, liver, spleen, kidney, heart, lung, pancreas, brain, skin, small intestine, large intestine, stomach, tail, thyroid and feces) was measured on a Wizard 2470 Automatic Gamma Counter, and the tissue-associated activity was calculated as the mean % ID/g using the following formula: [(activity in the target organ/grams of tissue)/injected dose]×100%.
After determining the optimal specific activity (of the three tested), a suitable time window for imaging was determined by testing the compound distribution in nude mice bearing U87 MG tumors at different time points. The compound was allowed to circulate for various times (1, 2, and 6 h), after which the mice were sacrificed (n=3).

[1] = 50 mCi/μmol, 2 h post injection
[2] = 250 mCi/μmol, 2 h post injection

With O=C(c1ccc([131I])cc1)N1CCN(C(=O)c2cc(Cc3n[nH]c(=O)c4ccccc34)ccc2F)CC1 [C-2d (^131I)] the “% ID/g, Blood” value (5 mCi/μmol, 2 h post injection) was 5.88 % ID/g, the “% ID/g, Bone” value (5 mCi/μmol, 2 h post injection) was 0.14 % ID/g and the “% ID/g, Brain” value (5 mCi/μmol, 2 h post injection) was 0.02 % ID/g. For the same compound, the “% ID/g, Feces” value (5 mCi/μmol, 2 h post injection) was 6.23 % ID/g, the “% ID/g, Heart” value (5 mCi/μmol, 2 h post injection) was 0.26 % ID/g and the “% ID/g, Kidneys” value (5 mCi/μmol, 2 h post injection) was 1.08 % ID/g. For the same compound, the “% ID/g, Large intestine” value (5 mCi/μmol, 2 h post injection) was 5.43 % ID/g, the “% ID/g, Liver” value (5 mCi/μmol, 2 h post injection) was 3.14 % ID/g and the “% ID/g, Lung” value (5 mCi/μmol, 2 h post injection) was 0.55 % ID/g. For the same compound, the “% ID/g, Muscle” value (5 mCi/μmol, 2 h post injection) was 0.27 % ID/g, the “% ID/g, Pancreas” value (5 mCi/μmol, 2 h post injection) was 0.67 % ID/g and the “% ID/g, Skin” value (5 mCi/μmol, 2 h post injection) was 0.26 % ID/g. The “% ID/g, Small intestine” value (5 mCi/μmol, 2 h post injection) was 14.16 % ID/g, the “% ID/g, Spleen” value (5 mCi/μmol, 2 h post injection) was 0.60 % ID/g and the “% ID/g, Stomach” value (5 mCi/μmol, 2 h post injection) was 5.86 % ID/g. For the same compound, the “% ID/g, Tail” value (5 mCi/μmol, 2 h post injection) was 2.31 % ID/g, the “% ID/g, Thyroid” value (5 mCi/μmol, 2 h post injection) was 0.37 % ID/g and the “% ID/g, Tumor” value (5 mCi/μmol, 2 h post injection) was 0.32 % ID/g. For the same compound, the “% ID/g, Blood” value [1] was 0.90 % ID/g, the “% ID/g, Bone” value [1] was 0.04 % ID/g and the “% ID/g, Brain” value [1] was 0.007 % ID/g. The “% ID/g, Feces” value [1] was 3.75 % ID/g, the “% ID/g, Heart” value [1] was 0.10 % ID/g and the “% ID/g, Kidneys” value [1] was 0.35 % ID/g. For the same compound, the “% ID/g, Large intestine” value [1] was 0.94 % ID/g, the “% ID/g, Liver” value [1] was 1.02 % ID/g and the “% ID/g, Lung” value [1] was 0.28 % ID/g. For the same compound, the “% ID/g, Muscle” value [1] was 0.04 % ID/g, the “% ID/g, Pancreas” value [1] was 0.42 % ID/g and the “% ID/g, Skin” value [1] was 0.092 % ID/g. For the same compound, the “% ID/g, Small intestine” value [1] was 7.17 % ID/g, the “% ID/g, Spleen” value [1] was 0.15 % ID/g and the “% ID/g, Stomach” value [1] was 1.90 % ID/g. The “% ID/g, Tail” value [1] was 0.45 % ID/g, the “% ID/g, Thyroid” value [1] was 0.14 % ID/g and the “% ID/g, Tumor” value [1] was 0.17 % ID/g. The “% ID/g, Blood” value [2] was 4.78 % ID/g, the “% ID/g, Bone” value [2] was 0.09 % ID/g and the “% ID/g, Brain” value [2] was 0.06 % ID/g. The “% ID/g, Feces” value [2] was 67.25 % ID/g, the “% ID/g, Heart” value [2] was 0.16 % ID/g and the “% ID/g, Kidneys” value [2] was 0.58 % ID/g. The “% ID/g, Large intestine” value [2] was 17.29 % ID/g, the “% ID/g, Liver” value [2] was 2.17 % ID/g and the “% ID/g, Lung” value [2] was 0.43 % ID/g. The “% ID/g, Muscle” value [2] was 0.074 % ID/g, the “% ID/g, Pancreas” value [2] was 0.27 % ID/g and the “% ID/g, Skin” value [2] was 0.14 % ID/g. The “% ID/g, Small intestine” value [2] was 7.55 % ID/g, the “% ID/g, Spleen” value [2] was 0.43 % ID/g and the “% ID/g, Stomach” value [2] was 1.25 % ID/g. The “% ID/g, Tail” value [2] was 0.58 % ID/g, the “% ID/g, Thyroid” value [2] was 0.20 % ID/g and the “% ID/g, Tumor” value [2] was 0.18 % ID/g. For the same compound, the “% ID/g, Blood” value (1 h post injection) was 2.76 % ID/g, the “% ID/g, Bone” value (1 h post injection) was 0.19 % ID/g and the “% ID/g, Brain” value (1 h post injection) was 0.034 % ID/g. The “% ID/g, Feces” value (1 h post injection) was 7.31 % ID/g, the “% ID/g, Heart” value (1 h post injection) was 0.39 % ID/g and the “% ID/g, Kidneys” value (1 h post injection) was 1.60 % ID/g. The “% ID/g, Large intestine” value (1 h post injection) was 1.49 % ID/g, the “% ID/g, Liver” value (1 h post injection) was 4.61 % ID/g and the “% ID/g, Lung” value (1 h post injection) was 0.71 % ID/g. For the same compound, the “% ID/g, Muscle” value (1 h post injection) was 0.27 % ID/g, the “% ID/g, Pancreas” value (1 h post injection) was 0.74 % ID/g and the “% ID/g, Skin” value (1 h post injection) was 0.46 % ID/g. For the same compound, the “% ID/g, Small intestine” value (1 h post injection) was 13.70 % ID/g, the “% ID/g, Spleen” value (1 h post injection) was 0.64 % ID/g and the “% ID/g, Stomach” value (1 h post injection) was 1.88 % ID/g. The “% ID/g, Tail” value (1 h post injection) was 1.00 % ID/g, the “% ID/g, Thyroid” value (1 h post injection) was 0.56 % ID/g and the “% ID/g, Tumor” value (1 h post injection) was 0.50 % ID/g. The “% ID/g, Blood” value (2 h post injection) was 0.90 % ID/g, the “% ID/g, Bone” value (2 h post injection) was 0.044 % ID/g and the “% ID/g, Brain” value (2 h post injection) was 0.007±0.002 % ID/g and 0.007 % ID/g. The “% ID/g, Feces” value (2 h post injection) was 3.75 % ID/g, the “% ID/g, Heart” value (2 h post injection) was 0.10 % ID/g and the “% ID/g, Kidneys” value (2 h post injection) was 0.35 % ID/g. The “% ID/g, Large intestine” value (2 h post injection) was 0.94 % ID/g, the “% ID/g, Liver” value (2 h post injection) was 1.02 % ID/g and the “% ID/g, Lung” value (2 h post injection) was 0.28 % ID/g. The “% ID/g, Muscle” value (2 h post injection) was 0.04±0.02 % ID/g and 0.039 % ID/g, the “% ID/g, Pancreas” value (2 h post injection) was 0.42 % ID/g and the “% ID/g, Skin” value (2 h post injection) was 0.091 % ID/g. The “% ID/g, Small intestine” value (2 h post injection) was 7.16 % ID/g, the “% ID/g, Spleen” value (2 h post injection) was 0.15 % ID/g and the “% ID/g, Stomach” value (2 h post injection) was 1.90 % ID/g. The “% ID/g, Tail” value (2 h post injection) was 0.45 % ID/g, the “% ID/g, Thyroid” value (2 h post injection) was 0.14 % ID/g and the “% ID/g, Tumor” value (2 h post injection) was 0.17±0.06 % ID/g and 0.17 % ID/g. For the same compound, the “% ID/g, Blood” value (6 h post injection) was 0.34 % ID/g, the “% ID/g, Bone” value (6 h post injection) was 0.035 % ID/g and the “% ID/g, Brain” value (6 h post injection) was 0.008 % ID/g. For the same compound, the “% ID/g, Feces” value (6 h post injection) was 70.67 % ID/g, the “% ID/g, Heart” value (6 h post injection) was 0.075 % ID/g and the “% ID/g, Kidneys” value (6 h post injection) was 0.24 % ID/g. The “% ID/g, Large intestine” value (6 h post injection) was 1.33 % ID/g, the “% ID/g, Liver” value (6 h post injection) was 0.65 % ID/g and the “% ID/g, Lung” value (6 h post injection) was 0.12 % ID/g. For the same compound, the “% ID/g, Muscle” value (6 h post injection) was 0.023 % ID/g, the “% ID/g, Pancreas” value (6 h post injection) was 0.084 % ID/g and the “% ID/g, Skin” value (6 h post injection) was 0.072 % ID/g. For the same compound, the “% ID/g, Small intestine” value (6 h post injection) was 1.13 % ID/g, the “% ID/g, Spleen” value (6 h post injection) was 0.060 % ID/g and the “% ID/g, Stomach” value (6 h post injection) was 0.81 % ID/g. The “% ID/g, Tail” value (6 h post injection) was 0.31 % ID/g, the “% ID/g, Thyroid” value (6 h post injection) was 0.098 % ID/g and the “% ID/g, Tumor” value (6 h post injection) was 0.13 % ID/g.
